50 compounds from patent publication US8889878B2, “Haloalky-substituted amides as insecticides and acaricides” (Bayer CropScience AG, priority 2009, dated 2014) can be followed below.

This series in a line: logP by HPLC on reverse-phase column (EEC Directive 79/831 Annex V.A8). The class given is physicochemical. The note with it: for chromatographic logP: reverse-phase C18 HPLC column, pH 2.7, HPLC. How it is done:
The logP values reported in the above Tables and Preparation Examples were determined according to EEC Directive 79/831 Annex V.A8 by HPLC (High Performance Liquid Chromatography) on a reverse-phase column (C18). Temperature 43° C.

Where [1] appears, read: C18 reverse phase, 43° C., acidic range pH 2.7, calibration with alkan-2-ones.
Setting [2] is: HPLC, C18 reverse phase, 43° C., acidic range pH 2.7, calibration with alkan-2-ones.

For orientation: chromatographic logP means a lipophilicity value derived from retention on a column. With `O=C(C#Cc1ccc(C(=O)NC2CC2)c(Cl)c1)NC(c1cccc(C(F)(F)F)c1)C(F)(F)F` (centres unmarked) [2-Chloro-N-cyclopropyl-4-[3-oxo-3-({2,2,2-trifluoro-1-[3-(trifluoromethyl)phenyl]ethyl}amino)prop-1-yn-1-yl]benzamide], the chromatographic logP under setting [1] came to 3.34.

For `NC(c1cc(Cl)cc(C(F)(F)F)c1)C(F)(F)F` (centres unmarked) [1-[3-Chloro-5-(trifluoromethyl)phenyl]-2,2,2-trifluoroethanamine], the chromatographic logP under setting [1] came to 2.94.

What is called logP is a log measure of how a compound divides between an organic and an aqueous phase. A high value points to higher lipophilicity. For the compound `O=C(O)/C=C/c1ccc(C(=O)Nc2ccccn2)c(C(F)(F)F)c1` [(2E)-3-[4-(Pyridin-2-yl)carbamoyl)-3-trifluoromethylphenyl]acrylic acid], where the note is “pH 2.7”, the logP is 1.69.

Regarding `CC(=O)Nc1ccc(/C=C/C(=O)NC(c2cccc(C(F)(F)F)c2)C(F)(F)F)cc1` (centres unmarked) [Ia-3], the logP entry (HPLC-MS) is reported as “HPLC-MS: logP = 2.95; mass”.

Turning to `CCC(C)NC(=O)c1ccc(C=CC(=O)NC(c2cccc(C(F)(F)F)c2)C(F)(F)F)cc1Cl` (mixture of isomers) [Ia-192], the logP result (HPLC-MS) is reported as “HPLC-MS: logP = 3.71; mass”.

Consider `CC(C)(C)OC(=O)c1ccc2cc(C(=O)O)oc2c1` [6-(tert-Butoxycarbonyl)-1-benzofuran-2-carboxylic acid], for which the chromatographic logP under setting [1] worked out at 2.58.

Consider `NC(=O)c1cc2cc(C(=O)NC(c3cccc(C(F)(F)F)c3)C(F)(F)F)oc2cc1F` (centres unmarked) [Ic-16], for which the logP result under setting [2] is recorded as “HPLC-MS: logP = 2.88; mass”.

As to `O=C(O)/C=C/c1ccc(C(=O)NCc2ccccn2)c(C(F)(F)F)c1` [(2E)-3-[4-(Pyridin-2-ylmethyl)carbamoyl)-3-trifluoromethylphenyl]acrylic acid], the logP (pH 2.7) is given as 0.91.

As to `CNC(=O)c1cc2cc(C(=O)NC(c3cccc(C(F)(F)F)c3)C(F)(F)F)n(C)c2cc1Cl` (racemic) [Ic-30], the logP entry under setting [2] is reported as “HPLC-MS: logP = 3.2; mass (m/z):”.

In the case of `O=C(/C=C/c1ccc(C(=O)Nc2ncc(Cl)cn2)c(Cl)c1)NC(c1cccc(C(F)(F)F)c1)C(F)(F)F` (racemic) [Ia-199], the logP result (HPLC-MS) is “HPLC-MS: logP = 3.47; mass”.

Take `O=C(NC1CC1)c1ccc(Br)cc1C(F)(F)F` [4-Bromo-N-cyclopropyl-2-(trifluoromethyl)benzamide]: the chromatographic logP under setting [1] was determined as 2.13.

`CC(C)(C)OC(=O)NCc1ccc(Br)cc1C(F)(F)F` [tert-Butyl [4-bromo-2-(trifluoromethyl)benzyl]carbamate]: the chromatographic logP under setting [1] was determined as 4.13.

In turn, `CCOC(=O)c1cc(I)c(N)cc1Cl` [Ethyl 4-amino-2-chloro-5-iodobenzoate] yielded a chromatographic logP under setting [1] of 2.95.

Take `O=C(/C=C/c1ccc(S(=O)(=O)NC2CC2)cc1)NC(c1cccc(C(F)(F)F)c1)C(F)(F)F` (centres unmarked) [Ia-117]: the logP entry (HPLC-MS) is reported as “HPLC-MS: logP = 3.33; mass”.

In the case of `Cn1nccc1NC(=O)c1ccc(/C=C/C(=O)NC(c2cccc(C(F)(F)F)c2)C(F)(F)F)cc1Cl` (racemic) [Ia-188], the logP result (HPLC-MS) is “HPLC-MS: logP = 2.73; mass”.

As for `N#Cc1ccc2oc(C(=O)NC(c3ccc(Cl)c(Cl)c3)C(F)(F)F)cc2c1` (centres unmarked) [Ic-5], under setting [2], the logP result was “HPLC-MS: logP = 3.95; mass”.

`C=CC(=O)NC(c1cccc(C(F)(F)F)c1)C(F)(F)F` (centres unmarked) [N-{2,2,2-Trifluoro-1-[3-(trifluoromethyl)phenyl]ethyl}acrylamide] registered a chromatographic logP under setting [1] of 2.75.

As for `Cc1cc(/C=C/C(=O)NC(c2cccc(C(F)(F)F)c2)C(F)(F)F)ccc1C(=O)NC1CC1` (centres unmarked) [Ia-11], the logP entry (HPLC-MS) is “HPLC-MS: logP = 3.02; mass”.

Regarding `O=C(/C=C/c1ccc(NC(=O)c2cccnc2Cl)cc1)NC(c1cc(Cl)cc(Cl)c1)C(F)(F)F` (centres unmarked) [Ia-2], under “HPLC-MS”, the logP result is “HPLC-MS: logP = 3.69; mass”.

Take `O=C(/C=C/c1ccc(CNC(=O)C2CC2)c(C(F)(F)F)c1)NC(c1cccc(C(F)(F)F)c1)C(F)(F)F` (centres unmarked) [Ia-240]: for the setting “HPLC-MS”, the logP result is reported as “HPLC-MS: logP = 3.76; mass”.

As to `N#Cc1cnn(-c2ccc(/C=C/C(=O)NC(c3ccc(F)c(Cl)c3)C(F)(F)F)cc2Cl)c1` (racemic) [Ia-202], the logP result (HPLC-MS) is on record as “HPLC-MS: logP = 3.77; mass”.

Compound `CC(C)(C)OC(=O)NC1CCc2cc(/C=C/C(=O)O)ccc21` (centres unmarked) [(2E)-3-{1-[(tert-Butoxycarbonyl)amino]-2,3-dihydro-1H-inden-5-yl}acrylic acid] displayed a chromatographic logP under setting [1] of 2.47.

In turn, `CCOC(=O)c1cc2cc(C(=O)NC(c3cccc(C(F)(F)F)c3)C(F)(F)F)n(C)c2cc1Cl` (centres unmarked) [Ethyl 6-chloro-1-methyl-2-({2,2,2-trifluoro-1-[3-(trifluoromethyl)phenyl]ethyl}carbamoyl)-1H-indole-5-carboxylate] registered a chromatographic logP under setting [1] of 4.74.

As for `O=C(/C=C/c1ccc(C(=O)NC2C[S+]([O-])C2)c(C(F)(F)F)c1)NC(c1cccc(C(F)(F)F)c1)C(F)(F)F` (centres unmarked) [Ia-227], the logP entry (HPLC-MS) is “HPLC-MS: logP = 2.71; mass”.

Regarding `O=C(/C=C/c1ccc(C(=O)NC2CC2)cc1Cl)NC(c1cccc(C(F)(F)F)c1)C(F)(F)F` (centres unmarked) [Ia-233], the logP result (HPLC-MS) was “HPLC-MS: logP = 3.46; mass”.

Consider `O=C(NCc1ccccc1)c1ccc(Br)cc1C(F)(F)F` [N-Benzyl-4-bromo-2-(trifluoromethyl)benzamide], for which, under setting [1], the chromatographic logP amounted to 2.89.

The compound `O=C(NC1CC1)c1cnc(I)cc1C(F)(F)F` [N-Cyclopropyl-6-iodo-4-(trifluoromethyl)nicotinamide] returned a chromatographic logP under setting [1] of 1.92.

Turning to `O=C(/C=C/c1ccc(C(=O)Nc2nccs2)c(Cl)c1)NC(c1cccc(C(F)(F)F)c1)C(F)(F)F` (centres unmarked) [Ia-185], the logP entry (HPLC-MS) is recorded as “HPLC-MS: logP = 3.51; mass”.

`CC(C)(C)OC(=O)NCc1ccc(/C=C/C(=O)O)cc1C(F)(F)F` [(2E)-3-[4-{[tert-Butoxycarbonyl)amino]methyl}-3-(trifluoromethyl)phenyl]acrylic acid] came in with a chromatographic logP under setting [1] of 2.67.

As for `Cn1c(C(=O)NC(c2cccc(C(F)(F)F)c2)C(F)(F)F)cc2cc(C(=O)NC3CSC3)c(Cl)cc21` (racemic) [Ic-33], the logP entry under setting [2] is listed as “HPLC-MS: logP = 3.82; mass”.

`N/C(=N\O)c1ccc(/C=C/C(=O)NC(c2cccc(C(F)(F)F)c2)C(F)(F)F)cc1C(F)(F)F` (centres unmarked) [(2E)-3-[4-(N′-Hydroxycarbamimidoyl)-3-(trifluoromethyl)phenyl]-N-{2,2,2-trifluoro-1-[3-(trifluoromethyl)phenyl]ethyl}acrylamide] yielded a chromatographic logP under setting [1] of 2.55.

As to `CCC(=O)NC(C)c1ccc(Br)cc1F` (centres unmarked) [N-[1-(4-Bromo-2-fluorophenyl)ethyl]propanamide], the chromatographic logP under setting [1] worked out at 2.19.

`O=C(c1cc(F)cc(C(F)(F)F)c1)C(F)(F)F` [2,2,2-Trifluoro-1-[3-fluoro-5-(trifluoromethyl)phenyl]ethanone] registered a chromatographic logP under setting [1] of 2.54.

For `O=C(/C=C/c1ccc(C(=O)NC2CC2)c(C(F)(F)F)c1)NC(c1cccc(Cl)c1)C(F)(F)F` (centres unmarked) [Ia-231], under “HPLC-MS”, the logP entry is “HPLC-MS: logP = 3.22; mass”.

Consider `CN(C(=O)/C=C/c1ccc(C#N)cc1)C(c1cccc(C(F)(F)F)c1)C(F)(F)F` (centres unmarked) [Ia-25, (2E)-3-(4-Cyanophenyl)-N-methyl-N-{2,2,2-trifluoro-1-[3-(trifluoromethyl)phenyl]-ethyl}acrylamide], for which, under setting [1], the chromatographic logP is 4.01.

On to `Cc1cc(/C=C/C(=O)NC(c2cc(Cl)cc(C(F)(F)F)c2)C(F)(F)F)ccc1C(=O)NC1CC1` (centres unmarked) [Ia-39], for which the logP result (HPLC-MS) was “HPLC-MS: logP = 3.47; mass”.

Regarding `O=C(/C=C/c1ccc(CNC(=O)C2COC(=O)C2)c(C(F)(F)F)c1)NC(c1cccc(C(F)(F)F)c1)C(F)(F)F` (centres unmarked) [Ia-269], the lipophilicity (logP) result (HPLC-MS, HPLC on reverse-phase column) is listed as “HPLC-MS: logP = 3.34; mass”.

Under setting [1], `O=C(/C=C/c1ccc(C(=O)O)c(C(F)(F)F)c1)NC(c1cccc(C(F)(F)F)c1)C(F)(F)F` (centres unmarked) [4-[(1E)-3-Oxo-3-({2,2,2-trifluoro-1-[3-(trifluoromethyl)phenyl]ethyl}amino)prop-1-en-1-yl]-2-(trifluoromethyl)benzoic acid] displayed a chromatographic logP of 3.29.

On to `COC(=O)c1ccc(/C=C/C(=O)NC(c2cccc(C(F)(F)F)c2)C(F)(F)F)cc1C` (centres unmarked) [Ia-26], for which the logP result (HPLC-MS) is recorded as “HPLC-MS: logP = 4.09; mass”.

For the compound `O=C(/C=C/c1ccc(C(=O)Nc2cccc(Cl)n2)c(C(F)(F)F)c1)NC(c1cccc(C(F)(F)F)c1)C(F)(F)F` (centres unmarked) [Ia-120], the logP result (HPLC-MS) is listed as “HPLC-MS: logP = 4.33; mass”.

Take `O=C(/C=C/c1cccc(NC(=O)C2CC2)c1)NC(c1cccc(C(F)(F)F)c1)C(F)(F)F` (centres unmarked) [Ia-4]: the logP entry (HPLC-MS) is on record as “HPLC-MS: logP = 3.42; mass”.

As to `COC(=O)c1ccc(NC(=O)c2ccc(/C=C/C(=O)NC(c3cccc(C(F)(F)F)c3)C(F)(F)F)cc2Cl)nc1` (centres unmarked) [Ia-218], where the note is “HPLC-MS”, the logP result is listed as “HPLC-MS: logP = 3.92; mass”.

With `O=C(/C=C/c1ccc(C(=O)Nc2cnccn2)c(Cl)c1)NC(c1cccc(C(F)(F)F)c1)C(F)(F)F` (racemic) [Ia-216], the logP entry (HPLC-MS) is given as “HPLC-MS: logP = 3.31; mass”.

Under setting [1], `NC(c1cc(F)cc(C(F)(F)F)c1)C(F)(F)F` (stereo not drawn) [α,3-Bis(trifluoromethyl)-5-fluorobenzenemethanamine] showed a chromatographic logP of 2.51.

On to `O=C(O)/C=C/c1ccc(C(=O)NC2CC2)c(C(F)(F)F)c1` [(2E)-3-[4-(Cyclopropylcarbamoyl)-3-trifluoromethylphenyl]acrylic acid], for which the chromatographic logP under setting [1] amounted to 1.34.

With `Cc1cc(/C=C/C(=O)NC(c2cc(Cl)cc(Cl)c2)C(F)(F)F)ccc1C(=O)NCC(F)(F)F` (centres unmarked) [Ia-20], the logP entry (HPLC-MS) is recorded as “HPLC-MS: logP = 3.90; mass”.

With `O=C(/C=C/c1ccc(C(=O)Nc2cccnn2)c(Cl)c1)NC(c1cccc(C(F)(F)F)c1)C(F)(F)F` (centres unmarked) [Ia-217], where the note is “HPLC-MS”, the logP entry is on record as “HPLC-MS: logP = 3.29; mass”.

For `CS(=O)(=O)c1ccc2[nH]c(C(=O)NC(c3cccc(C(F)(F)F)c3)C(F)(F)F)cc2c1` (centres unmarked) [Ic-9], the logP result under setting [2] is given as “HPLC-MS: logP = 2.92; mass”.

On to `N#Cc1cc(/C=C/C(=O)NC(c2ccc(C(F)(F)F)cc2)C(F)(F)F)ccc1-n1cncn1` (centres unmarked) [Ia-14], for which the logP result (HPLC-MS) is recorded as “HPLC-MS: logP = 3.08; mass”.

`CCOC(=O)c1cc2cc(C(=O)NC(c3cccc(C(F)(F)F)c3)C(F)(F)F)[nH]c2cc1Cl` (centres unmarked) [Ethyl 6-chloro-2-({2,2,2-trifluoro-1-[3-(trifluoromethyl)phenyl]ethyl}carbamoyl)-1H-indole-5-carboxylate]: the chromatographic logP under setting [1] was 4.12.
